Source: patent US20200069772A1, “METHODS OF TREATING EARLY RHEUMATOID ARTHRITIS” (BRISTOL-MYERS SQUIBB COMPANY, priority 2014, published 2020)
“And” between values parts separate entries of the source, which are not always exact repeats. Equal entries are not always repeated.

Tests used:
patients with early RA [1] = test: AVERT phase 3b randomized active-controlled trial: signs and symptoms (DAS-defined remission, other remission and ACR measures); assay type: in vivo, human
Method: Patients receiving oral corticosteroids were required to be on a stable dose (≤10 mg/day for ≥4 weeks) at initiation and to maintain that dose until Month 12.
All patients received concomitant folic acid therapy.
Patients with DAS28 (CRP)≥3.2 were discontinued.
For the purpose of this study, DAS-defined remission was DAS28 (CRP)<2.6.
Exploratory endpoints included: Other remission rates (Simplified Disease Activity Index [SDAI; ≤3.3], Clinical Disease Activity Index [CDAI; ≤2.8] and Boolean remission [28-joint tender joint count ≤1 and 28-joint swollen joint count ≤1 and patient global assessment of disease activity [0-10 cm]≤1 and high-sensitivity CRP≤1 mg/dL]), American College of Rheumatology (ACR) responses and Major Clinical Response (ACR 70 response for 6 months at any time period) in each arm.
Co-primary endpoints were tested in hierarchical fashion. […] All patients who discontinued prior to completing the treatment or withdrawal period were imputed as non-responders for the Month 12 or 18 analyses.
Endpoints of Disease Activity Score (DAS)-defined remission, SDAI remission, CDAI remission, Boolean remission, ACR 20/50/70 response and Major Clinical Response over time were summarized using descriptive statistics (with 95% confidence intervals at each time point).
For each treatment arm, a post hoc analysis was performed of mean baseline characteristics for patients who achieved DAS-defined remission at only Month 12 and at both Months 12 and 18, and of the proportions of patients who achieved DAS-defined remission based on these characteristics. An analysis of the overall treatment effect in mean change from baseline in DAS28 (CRP) (including data up to Month 12 of the treatment period) was performed for each treatment arm. Overall treatment effect and treatment differences between the three arms were obtained using a longitudinal repeated measures model including fixed categorical effects of treatment, months, and prior corticosteroid use as well as the continuous fixed covariate of baseline value. An unstructured covariance matrix was used to represent the correlation of the repeated measures within each subject.

patients with early RA [2] = test: AVERT trial: HAQ-DI response (≥0.3 points reduction from baseline); assay type: in vivo, human; conditions: Month 12
[3] = treatment period, compared subgroups not stated

CN(Cc1cnc2nc(N)nc(N)c2n1)c1ccc(C(=O)N[C@@H](CCC(=O)O)C(=O)O)cc1 [MTX, methotrexate]
proportion of patients in DAS-defined remission (DAS28 [CRP]<2.6) at Month 12 (patients with early RA [1]; Month 12 of treatment period, patients with baseline DAS28 (CRP), discontinuations imputed as non-responders): 45.2%
proportion of patients in DAS-defined remission (DAS28 [CRP]<2.6) at both Months 12 and 18 (patients with early RA [1]; after withdrawal of all RA therapy at Month 12, only patients with DAS28 (CRP) available at baseline): 7.8%
patients remaining in DAS-defined remission at Month 18 (patients with early RA [1]; of the patients who entered the withdrawal period in DAS-defined remission at Month 12): 16.9%
Proportion of Patients with DAS-defined Remission (DAS28 [CRP] < 2.6) at Both Months 12 and 18 (patients with early RA [1]; post hoc subgroup: baseline DAS28 (CRP) >Median (5.4)): 3/55 (5.5) %
Proportion of Patients with DAS-defined Remission (DAS28 [CRP] < 2.6) at Both Months 12 and 18 (patients with early RA [1]; post hoc subgroup: baseline DAS28 (CRP) Missing): 0/1 (0) %
Proportion of Patients with DAS-defined Remission (DAS28 [CRP] < 2.6) at Both Months 12 and 18 (patients with early RA [1]; post hoc subgroup: baseline DAS28 (CRP) ≤Median (5.4)): 6/60 (10.0) %
Proportion of Patients with DAS-defined Remission (DAS28 [CRP] < 2.6) at Both Months 12 and 18 (patients with early RA [1]; post hoc subgroup: baseline Erosion >Median (4.5)): 3/50 (6.0) %
Proportion of Patients with DAS-defined Remission (DAS28 [CRP] < 2.6) at Both Months 12 and 18 (patients with early RA [1]; post hoc subgroup: baseline Erosion >Q1 (1.5)-Q2 (4.5)): 2/23 (8.7) %
Proportion of Patients with DAS-defined Remission (DAS28 [CRP] < 2.6) at Both Months 12 and 18 (patients with early RA [1]; post hoc subgroup: baseline Erosion >Q2 (4.5)-Q3 (8.5)): 2/23 (8.7) %
Proportion of Patients with DAS-defined Remission (DAS28 [CRP] < 2.6) at Both Months 12 and 18 (patients with early RA [1]; post hoc subgroup: baseline Erosion >Q3 (8.5)): 1/27 (3.7) %
Proportion of Patients with DAS-defined Remission (DAS28 [CRP] < 2.6) at Both Months 12 and 18 (patients with early RA [1]; post hoc subgroup: baseline Erosion Missing): 2/13 (15.4) %
Proportion of Patients with DAS-defined Remission (DAS28 [CRP] < 2.6) at Both Months 12 and 18 (patients with early RA [1]; post hoc subgroup: baseline Erosion ≤Median (4.5)): 4/53 (7.5) %
Proportion of Patients with DAS-defined Remission (DAS28 [CRP] < 2.6) at Both Months 12 and 18 (patients with early RA [1]; post hoc subgroup: baseline Erosion ≤Q1 (1.5)): 2/30 (6.7) %
Proportion of Patients with DAS-defined Remission (DAS28 [CRP] < 2.6) at Both Months 12 and 18 (patients with early RA [1]; post hoc subgroup: baseline HAQ-DI >Median (1.375)): 5/49 (10.2) %
Proportion of Patients with DAS-defined Remission (DAS28 [CRP] < 2.6) at Both Months 12 and 18 (patients with early RA [1]; post hoc subgroup: baseline HAQ-DI Missing): 0/11 (0) %
Proportion of Patients with DAS-defined Remission (DAS28 [CRP] < 2.6) at Both Months 12 and 18 (patients with early RA [1]; post hoc subgroup: baseline HAQ-DI ≤Median (1.375)): 4/56 (7.1) %
Proportion of Patients with DAS-defined Remission (DAS28 [CRP] < 2.6) at Both Months 12 and 18 (patients with early RA [1]; post hoc subgroup: baseline Osteitis >Median (0.5)): 3/49 (6.1) %
Proportion of Patients with DAS-defined Remission (DAS28 [CRP] < 2.6) at Both Months 12 and 18 (patients with early RA [1]; post hoc subgroup: baseline Osteitis >Q1 (0)-Q2 (0.5)): 0/5 (0) %
Proportion of Patients with DAS-defined Remission (DAS28 [CRP] < 2.6) at Both Months 12 and 18 (patients with early RA [1]; post hoc subgroup: baseline Osteitis >Q2 (0.5)-Q3 (5)): 2/26 (7.7) %
Proportion of Patients with DAS-defined Remission (DAS28 [CRP] < 2.6) at Both Months 12 and 18 (patients with early RA [1]; post hoc subgroup: baseline Osteitis >Q3 (5)): 1/23 (4.3) %
Proportion of Patients with DAS-defined Remission (DAS28 [CRP] < 2.6) at Both Months 12 and 18 (patients with early RA [1]; post hoc subgroup: baseline Osteitis Missing): 2/13 (15.4) %
Proportion of Patients with DAS-defined Remission (DAS28 [CRP] < 2.6) at Both Months 12 and 18 (patients with early RA [1]; post hoc subgroup: baseline Osteitis ≤Median (0.5)): 4/54 (7.4) %
Proportion of Patients with DAS-defined Remission (DAS28 [CRP] < 2.6) at Both Months 12 and 18 (patients with early RA [1]; post hoc subgroup: baseline Osteitis ≤Q1 (0)): 4/49 (8.2) %
Proportion of Patients with DAS-defined Remission (DAS28 [CRP] < 2.6) at Both Months 12 and 18 (patients with early RA [1]; post hoc subgroup: baseline Pain (100 mm VAS) >Median (62)): 2/45 (4.4) %
Proportion of Patients with DAS-defined Remission (DAS28 [CRP] < 2.6) at Both Months 12 and 18 (patients with early RA [1]; post hoc subgroup: baseline Pain (100 mm VAS) Missing): 0/11 (0.0) %
Proportion of Patients with DAS-defined Remission (DAS28 [CRP] < 2.6) at Both Months 12 and 18 (patients with early RA [1]; post hoc subgroup: baseline Pain (100 mm VAS) ≤Median (62)): 7/60 (11.7) %
Proportion of Patients with DAS-defined Remission (DAS28 [CRP] < 2.6) at Both Months 12 and 18 (patients with early RA [1]; post hoc subgroup: baseline Synovitis >Median (4.5)): 3/56 (5.4) %
Proportion of Patients with DAS-defined Remission (DAS28 [CRP] < 2.6) at Both Months 12 and 18 (patients with early RA [1]; post hoc subgroup: baseline Synovitis >Q1 (2)-Q2 (4.5)): 1/23 (4.3) %
Proportion of Patients with DAS-defined Remission (DAS28 [CRP] < 2.6) at Both Months 12 and 18 (patients with early RA [1]; post hoc subgroup: baseline Synovitis >Q2 (4.5)-Q3 (8.5)): 1/30 (3.3) %
Proportion of Patients with DAS-defined Remission (DAS28 [CRP] < 2.6) at Both Months 12 and 18 (patients with early RA [1]; post hoc subgroup: baseline Synovitis >Q3 (8.5)): 2/26 (7.7) %
Proportion of Patients with DAS-defined Remission (DAS28 [CRP] < 2.6) at Both Months 12 and 18 (patients with early RA [1]; post hoc subgroup: baseline Synovitis Missing): 2/13 (15.4) %
Proportion of Patients with DAS-defined Remission (DAS28 [CRP] < 2.6) at Both Months 12 and 18 (patients with early RA [1]; post hoc subgroup: baseline Synovitis ≤Median (4.5)): 4/47 (8.5) %
Proportion of Patients with DAS-defined Remission (DAS28 [CRP] < 2.6) at Both Months 12 and 18 (patients with early RA [1]; post hoc subgroup: baseline Synovitis ≤Q1 (2)): 3/24 (12.5) %
Proportion of Patients with DAS-defined Remission (DAS28 [CRP] < 2.6) at Both Months 12 and 18 (patients with early RA [1]; post hoc subgroup: symptom duration >6 Months): 2/39 (5.1) %
Proportion of Patients with DAS-defined Remission (DAS28 [CRP] < 2.6) at Both Months 12 and 18 (patients with early RA [1]; post hoc subgroup: symptom duration >Median (0.37 years)): 4/47 (8.5) %
Proportion of Patients with DAS-defined Remission (DAS28 [CRP] < 2.6) at Both Months 12 and 18 (patients with early RA [1]; post hoc subgroup: symptom duration ≤6 Months): 7/77 (9.1) %
Proportion of Patients with DAS-defined Remission (DAS28 [CRP] < 2.6) at Both Months 12 and 18 (patients with early RA [1]; post hoc subgroup: symptom duration ≤Median (0.37 years)): 5/69 (7.2) %
time with DAS28 (CRP) <2.6 during the treatment period (first value of 'x vs y') (patients with early RA [1]; [3]): 5.8 months
time with DAS28 (CRP) <2.6 during the treatment period (second value of 'x vs y') (patients with early RA [1]; [3]): 5.7 months
HAQ-DI Response (≥0.3), proportion of patients (patients with early RA [2]): 44.0% and 51 (44.0) %
